This passage reports activity relative to norfloxacin results from ChEMBL document CHEMBL1125906, “Three-dimensional structure-activity relationships and receptor mapping of N1-substituents of quinolone antibacterials” (1991).

Structures are written as SMILES. Bounds are passed on as bounds.

The experiment concerns Escherichia coli. Kind of experiment: Biological activity against Escherichia coli N1HJ JC-2 relative to Norfloxacin. The experiment is classed as functional.
Turning to `CN1CCN(c2cc3c(cc2F)c(=O)c(C(=O)O)cn3-c2ccc(F)cc2F)CC1`, the activity relative to norfloxacin amounted to 4. Under `CN1CCN(c2cc3c(cc2F)c(=O)c(C(=O)O)cn3-c2ccc(Br)cc2)CC1` stands 0.0312. Under `O=C(O)c1c(=O)c2cc(F)c(N3CCNCC3)cc2n2ccsc12` stands 4. The compound `C=CCn1cc(C(=O)O)c(=O)c2cc(F)c(N3CCNCC3)cc21` displayed an activity relative to norfloxacin of 0.25. On to `O=C(O)c1cn(CCO)c2cc(N3CCNCC3)c(F)cc2c1=O`, for which the activity relative to norfloxacin was 0.25. As for `Cc1ccc(-n2cc(C(=O)O)c(=O)c3cc(F)c(N4CCN(C)CC4)cc32)cc1`, the activity relative to norfloxacin worked out at 0.25.

For the compound `Cn1cc(C(=O)O)c(=O)c2cc(F)c(N3CCNCC3)cc21`, the activity relative to norfloxacin worked out at 0.25.

Turning to `O=C(O)c1cn(CCF)c2cc(N3CCNCC3)c(F)cc2c1=O`, the activity relative to norfloxacin came out at 4. With `CN1CCN(c2cc3c(cc2F)c(=O)c(C(=O)O)c2n3CCS2)CC1` the figure was 4. With `CN1CCN(c2cc3c(cc2F)c(=O)c(C(=O)O)cn3-c2ccc3c(c2)OCO3)CC1`, the activity relative to norfloxacin was determined as 0.25.

`CN1CCN(c2cc3c(cc2F)c(=O)c(C(=O)O)cn3-c2ccccc2)CC1` gave an activity relative to norfloxacin of 0.25. `CN1CCN(c2cc3c(cc2F)c(=O)c(C(=O)O)cn3-c2ccccc2F)CC1` showed an activity relative to norfloxacin of 0.25.

In turn, `CCCn1cc(C(=O)O)c(=O)c2cc(F)c(N3CCNCC3)cc21` yielded an activity relative to norfloxacin of 0.25. Under `CN1CCN(c2cc3c(cc2F)c(=O)c(C(=O)O)cn3-c2cccc(F)c2)CC1` stands 0.0312. With `O=C(O)c1cn(Cc2ccccc2)c2cc(N3CCNCC3)c(F)cc2c1=O` the figure was 0.25. Regarding `C=Cn1cc(C(=O)O)c(=O)c2cc(F)c(N3CCNCC3)cc21`, the activity relative to norfloxacin worked out at 4. Under `Cc1csc2c(C(=O)O)c(=O)c3cc(F)c(N4CCNCC4)cc3n12` stands 4; under `CN1CCN(c2cc3c(cc2F)c(=O)c(C(=O)O)cn3-c2ccc(Cl)cc2)CC1`, 0.25; under `COc1ccc(-n2cc(C(=O)O)c(=O)c3cc(F)c(N4CCN(C)CC4)cc32)cc1`, 0.004. Compound `Cc1ccccc1-n1cc(C(=O)O)c(=O)c2cc(F)c(N3CCN(C)CC3)cc21` yielded an activity relative to norfloxacin of 0.25. Under `CN(C)CCn1cc(C(=O)O)c(=O)c2cc(F)c(N3CCNCC3)cc21` stands 0.0312; under `CN1CCN(c2cc3c(cc2F)c(=O)c(C(=O)O)cn3-c2ccc(O)cc2)CC1`, 4; under `Cc1cccc(C)c1-n1cc(C(=O)O)c(=O)c2cc(F)c(N3CCN(C)CC3)cc21`, < 0.004. With `CNn1cc(C(=O)O)c(=O)c2cc(F)c(N3CCN(C)CC3)cc21` [AMIFLOXACIN] the figure was 4; with `O=C(O)c1cn(C2CC2)c2cc(N3CCNCC3)c(F)cc2c1=O` [CIPROFLOXACIN], 4. With `C[C@@H]1COc2c(N3CCN(C)CC3)c(F)cc3c(=O)c(C(=O)O)cn1c23` [DEXTROFLOXACINE] the figure was 0.25.

The compound `CN1CCN(c2cc3c(cc2F)c(=O)c(C(=O)O)cn3-c2ccc(F)cc2)CC1` [DIFLOXACIN] registered an activity relative to norfloxacin of 4. `C[C@H]1COc2c(N3CCN(C)CC3)c(F)cc3c(=O)c(C(=O)O)cn1c23.C[C@H]1COc2c(N3CCN(C)CC3)c(F)cc3c(=O)c(C(=O)O)cn1c23.O` [LEVOFLOXACIN] displayed an activity relative to norfloxacin of 4. With `CCn1cc(C(=O)O)c(=O)c2cc(F)c(N3CCNCC3)cc21` [NORFLOXACIN] the figure was 4.
